Data as given in article PMC6001238, “Iterative Chemical Engineering of Vancomycin Leads to Novel Vancomycin Analogs With a High in Vitro Therapeutic Index” (Frontiers in Microbiology, 2018).
Converted amounts (≈) assume the structure as drawn.

Tests used:
E. faecalis VSE 1 = experiment: MIC, broth microdilution, vancomycin-sensitive E. faecalis (VSE 1); assay type: cell-based, Enterococcus faecalis; settings: for MIC: Enterococcus faecalis VSE 1 (vancomycin-sensitive), read-out: MIC; for MIC-fold improvement vs. vancomycin: VSE 1, ratio of MIC of vancomycin and MIC of analogue
Method in brief: (§1)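 Inhibitory concentrations were read by the CLSI broth microdilution procedure, with water and sterile broth as controls. One experiment added vancomycin (10 μM final) together with each analogue or reference antibiotic.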

E. faecalis VRE 6 = experiment: MIC, broth microdilution, vancomycin-resistant E. faecalis VRE 6 (VanA); assay type: cell-based, Enterococcus faecalis; settings: for MIC: Enterococcus faecalis VRE 6 (vancomycin-resistant), read-out: MIC; for MIC-fold improvement vs. vancomycin: VRE 6, ratio of MIC of vancomycin and MIC of analogue
Method in brief: as §1

E. faecalis VRE 53 = experiment: MIC, broth microdilution, vancomycin-resistant E. faecalis VRE 53 (VanA); assay type: cell-based, Enterococcus faecalis; settings: for MIC: Enterococcus faecalis VRE 53 (vancomycin-resistant), read-out: MIC; for MIC-fold improvement vs. vancomycin: VRE 53, ratio of MIC of vancomycin and MIC of analogue
Method in brief: as §1

E. faecalis VRE 29 = experiment: MIC, broth microdilution, vancomycin-resistant E. faecalis VRE 29 (VanA); assay type: cell-based, Enterococcus faecalis; settings: for MIC: Enterococcus faecalis VRE 29 (vancomycin-resistant), read-out: MIC; for MIC-fold improvement vs. vancomycin: VRE 29, ratio of MIC of vancomycin and MIC of analogue
Method in brief: as §1

E. faecalis VRE 37 = experiment: MIC, broth microdilution, vancomycin-resistant E. faecalis VRE 37 (VanA); assay type: cell-based, Enterococcus faecalis; settings: Enterococcus faecalis VRE 37 (vancomycin-resistant); read-out: MIC
Method in brief: as §1

[1] = system: Murine leukemia (L1210) cells; experiment: Cytostatic activity, L1210 cell proliferation; assay type: cell-based; settings: mean ± SD of three experiments; highest concentration tested 250 µM; 2 days; read-out: Toxicity (IC50) L1210
Method in brief: (§2)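 Test compounds, serially diluted, received an equal volume of cell suspension at 300,000–500,000 cells/mL. After 37°C incubation (2 days for L1210, 3 for CEM, 4 for HeLa), cells were enumerated by Coulter counting and 50%-inhibitory concentrations calculated per cell type.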

[2] = system: human T-lymphocyte (CEM) cells; experiment: Cytostatic activity, CEM cell proliferation; assay type: cell-based; settings: mean ± SD of three experiments; highest concentration tested 250 µM; 3 days; read-out: Toxicity (IC50) CEM
Method in brief: as §2

[3] = system: human cervix carcinoma (HeLa) cells; experiment: Cytostatic activity, HeLa cell proliferation; assay type: cell-based; settings: mean ± SD of three experiments; highest concentration tested 250 µM; 4 days; read-out: Toxicity (IC50) HeLa
Method in brief: as §2

[4] = system: L1210, CEM and HeLa cell lines; experiment: Cytostatic activity, average or summary over L1210, CEM and HeLa; assay type: cell-based; settings: average of L1210, CEM and HeLa; read-out: Toxicity (IC50) Average
Method in brief: as §2

[5] = system: S. aureus VSSA (ATCC 6538); experiment: MIC, broth microdilution, vancomycin-sensitive S. aureus (VSSA/MSSA, ATCC 6538); assay type: cell-based, Staphylococcus aureus; settings: for MIC: Staphylococcus aureus VSSA, read-out: MIC; for MIC-fold improvement vs. vancomycin: VSSA, ratio of MIC of vancomycin and MIC of analogue
Method in brief: as §1

S. aureus VISA/HIP5827 = experiment: MIC, broth microdilution, vancomycin-intermediate S. aureus VISA HIP5827; assay type: cell-based, Staphylococcus aureus; settings: for MIC: Staphylococcus aureus VISA/HIP5827, read-out: MIC; for MIC-fold improvement vs. vancomycin: VISA/HIP5827, ratio of MIC of vancomycin and MIC of analogue
Method in brief: as §1

S. aureus VRSA = experiment: MIC, broth microdilution, vancomycin-resistant S. aureus (VRSA); assay type: cell-based, Staphylococcus aureus; settings: for MIC: Staphylococcus aureus VRSA, read-out: MIC; for MIC-fold improvement vs. vancomycin: VRSA, ratio of MIC of vancomycin and MIC of analogue
Method in brief: as §1

MRSA KS2 = experiment: MIC, broth microdilution, MRSA KS2; assay type: cell-based, Staphylococcus aureus; settings: for MIC-fold improvement vs. vancomycin: MRSA KS2, ratio of MIC of vancomycin and MIC of analogue; for MIC: Staphylococcus aureus MRSA KS2, read-out: MIC
Method in brief: as §1

MRSA KS6 = experiment: MIC, broth microdilution, MRSA KS6; assay type: cell-based, Staphylococcus aureus; settings: for MIC-fold improvement vs. vancomycin: MRSA KS6, ratio of MIC of vancomycin and MIC of analogue; for MIC: Staphylococcus aureus MRSA KS6, read-out: MIC
Method in brief: as §1

MRSA KS89 = experiment: MIC, broth microdilution, MRSA KS89; assay type: cell-based, Staphylococcus aureus; settings: for MIC-fold improvement vs. vancomycin: MRSA KS8, ratio of MIC of vancomycin and MIC of analogue; for MIC: Staphylococcus aureus MRSA KS8, read-out: MIC
Method in brief: as §1

MRSA KS1 = experiment: MIC, broth microdilution, MRSA KS1; assay type: cell-based, Staphylococcus aureus; settings: for MIC-fold improvement vs. vancomycin: MRSA KS1, ratio of MIC of vancomycin and MIC of analogue; for MIC: Staphylococcus aureus MRSA KS1, read-out: MIC
Method in brief: as §1

[6] = system: Clostridium difficile ATJ ribotype 014/20; experiment: MIC, plate drop assay, C. difficile ATJ ribotype 014/20; assay type: cell-based; settings: for MIC-fold improvement vs. vancomycin: C. difficile ATJ ribotype 014/20; for MIC: C. difficile ATJ ribotype 014/20, plate drop assay
Procedure: (§3) Bacterial lawns of both C. difficile strains were prepared by adding 0.5 mL overnight culture to 8 mL sloppy BHI agar (0.4% agar) supplemented with 1.5 g/L CaCl2⋅2H2O and 81.2 g/L MgCl2⋅6H2O, and pouring the mixture into Petri plates. A twofold dilution series of the selected vancomycin analogs, vancomycin ([…]) and daptomycin (25 μM) was spotted (10 μL) on the bacterial lawn. Spots were air-dried and the plates were incubated overnight at 37°C in an anaerobic cabinet. Ultrapure water was included as negative control. The assay was performed in triplicate. Inhibition was observed by cleared spots.

[7] = system: Clostridium difficile AIU ribotype 027; experiment: MIC, plate drop assay, C. difficile AIU ribotype 027; assay type: cell-based; settings: for MIC-fold improvement vs. vancomycin: C. difficile AIU ribotype 027
Procedure: as §3

Row | Compound | MIC (E. faecalis VSE 1) | MIC-fold improvement vs. vancomycin (E. faecalis VSE 1) | MIC (E. faecalis VRE 6) | MIC-fold improvement vs. vancomycin (E. faecalis VRE 6) | MIC (E. faecalis VRE 53) | MIC-fold improvement vs. vancomycin (E. faecalis VRE 53) | MIC (E. faecalis VRE 29) | MIC-fold improvement vs. vancomycin (E. faecalis VRE 29) | MIC (E. faecalis VRE 37) | IC50 [1] | IC50 [2] | IC50 [3] | IC50 [4] | MIC [5] | MIC-fold improvement vs. vancomycin [5] | MIC (S. aureus VISA/HIP5827) | MIC-fold improvement vs. vancomycin (S. aureus VISA/HIP5827) | MIC (S. aureus VRSA) | MIC-fold improvement vs. vancomycin (S. aureus VRSA) | MIC-fold improvement vs. vancomycin (MRSA KS2) | further results
1 | CNC(CC(C)C)C(=O)NC1C(=O)NC(CC(N)=O)C(=O)NC2C(=O)NC3C(=O)NC(C(=O)NC(C(=O)NCCNC(=O)C=Cc4ccccc4)c4cc(O)cc(O)c4-c4cc3ccc4O)C(O)c3ccc(c(Cl)c3)Oc3cc2cc(c3OC2OC(CO)C(O)C(O)C2OC2CC(C)(N)C(O)C(C)O2)Oc2ccc(cc2Cl)C1O (stereo not shown) [Vanc-21] | 0.39 µM (≈ 0.632 µg/mL) | 4 | 1.56 µM (≈ 2.53 µg/mL) | 128 | 12.5 µM (≈ 20.3 µg/mL) | 32 | 12.5 µM (≈ 20.3 µg/mL) | 32 | 12.5 µM (≈ 20.3 µg/mL) | > 250 µM | > 250 µM | > 250 µM | > 250 µM | 0.78 µM (≈ 1.26 µg/mL) | 1 | 0.78 µM (≈ 1.26 µg/mL) | 8 | 1.56 µM (≈ 2.53 µg/mL) | 64 | 2 | MIC (MRSA KS2): 0.39 µM (≈ 0.632 µg/mL); MIC-fold improvement vs. vancomycin (MRSA KS6): 1; MIC (MRSA KS6): 0.78 µM (≈ 1.26 µg/mL); MIC-fold improvement vs. vancomycin (MRSA KS89): 1; MIC (MRSA KS89): 0.78 µM (≈ 1.26 µg/mL); MIC-fold improvement vs. vancomycin (MRSA KS1): 1; MIC (MRSA KS1): 0.78 µM (≈ 1.26 µg/mL); MIC-fold improvement vs. vancomycin [6]: <1.4; MIC [6]: >25 µM; MIC-fold improvement vs. vancomycin [7]: 4
2 | CN[C@H](CC(C)C)C(=O)N[C@H]1C(=O)N[C@@H](CC(N)=O)C(=O)N[C@H]2C(=O)N[C@H]3C(=O)N[C@H](C(=O)N[C@H](C(=O)NCCNC(=O)/C=C/c4ccc(F)cc4)c4cc(O)cc(O)c4-c4cc3ccc4O)[C@H](O)c3ccc(c(Cl)c3)Oc3cc2cc(c3O[C@@H]2O[C@H](CO)[C@@H](O)[C@H](O)[C@H]2O[C@H]2C[C@](C)(N)[C@H](O)[C@H](C)O2)Oc2ccc(cc2Cl)[C@H]1O [Vanc-22] | 0.39 µM (≈ 0.639 µg/mL) | 4 | 1.56 µM (≈ 2.56 µg/mL) | 128 | 25 µM (≈ 41 µg/mL) | 16 | 12.5 µM (≈ 20.5 µg/mL) | 32 | 12.5 µM (≈ 20.5 µg/mL) | > 250 µM | > 250 µM | 76 ± 11 µM | 192 µM | 0.39 µM (≈ 0.639 µg/mL) | 2 | 1.56 µM (≈ 2.56 µg/mL) | 4 | 3.13 µM (≈ 5.13 µg/mL) | 32 | 2 | MIC (MRSA KS2): 0.39 µM (≈ 0.639 µg/mL); MIC-fold improvement vs. vancomycin (MRSA KS6): 2; MIC (MRSA KS6): 0.39 µM (≈ 0.639 µg/mL); MIC-fold improvement vs. vancomycin (MRSA KS89): 2; MIC (MRSA KS89): 0.39 µM (≈ 0.639 µg/mL); MIC-fold improvement vs. vancomycin (MRSA KS1): 2; MIC (MRSA KS1): 0.39 µM (≈ 0.639 µg/mL); MIC-fold improvement vs. vancomycin [6]: 5.6; MIC [6]: 6.25 µM (≈ 10.2 µg/mL); MIC-fold improvement vs. vancomycin [7]: 7; MIC ([7]; C. difficile AIU ribotype 027, plate drop assay): 6.25 µM (≈ 10.2 µg/mL)
